Data taken from patent publication US4894460A (Pierrel S.p.A., priority 1982, dated 1990).
Read-outs that look alike come from different tables or passages of the source.

Assays:
in vivo = conditions: mouse, iv, mice, i.v. in dimethylsulfoxide, after seven days, Litchfield and Wilcoxon
Protocol: Intravenous Toxicity in Mice
Male CD1 mice from Charles River (Italy), weighing 25 g were used. Compounds were administered intravenously (i.v.), dissolved in dimethylsulfoxide, and the volume of administration was 0.01 ml per 10 g of body weight. The LD50 after seven days, was calculated according to the method of Litchfield and Wilcoxon (Experimental Therapeutics 96, 99 (1949)).

taenia coli = test: Antagonistic activity to calcium in the taenia coli of guinea pigs (CaCl2-induced contractions, in vitro); assay type: cell-based, Hartley albino guinea pigs; conditions: Cavia porcellus, 10 min, read-out: Calcium antagonistic activity in vitro ED50
Protocol: Antagonistic Activity to Calcium in the Taenia Coli of Guinea Pigs
Hartley albino guinea pigs of average weight 450 g were used. The calcium antagonistic activity was determined stimulating the taenia coli, previously depolarized, with a single submaximal concentration of CaCl2 (10^-3 M), at intervals of 20 minutes (according to the method Naunyn Schmied. Arch. Pharmacol. 318, 235 (1982)). The products were left in contact with the preparation for 10 minutes. The ED50 were calculated from the percentage of maximum inhibition.

[1] = system: Spontaneous Hypertensive Rats (SHR); test: Hypotensive activity in spontaneous hypertensive rats (SHR); assay type: in vivo, Male SHR (Okamoto) rats; conditions: Rattus norvegicus, po, p.o. in 0.4% carboxymethyl cellulose, systolic arterial pressure, read-out: Hypotensive activity in SHR ED^SABP -25%
Protocol: Hypotensive Activity in Spontaneous Hypertensive Rats (SHR)
Male SHR (Okamoto), of 70-100 days of age were used. The systolic arterial pressure (SABP) was determined by applying to the tail of the animal a pressure transducer with a sleeve connected to a BP-Recorder (W-W Electronic of Basel). The animals were previously warmed to 39° C. for a period of 15-20 minutes in a ventilated chamber.
The rats were previously trained to the registration for 1-2 days prior to the start of the experiment which consisted of a basic registration, the pharmacological treatment and then of subsequent registrations one hour and three hours after the treatment.
All the products were administered orally (p.o.), suspended in 0.4% carboxymethyl cellulose (Methocel); the volume of vehicle was 2 ml per kg.
The compounds of formula (I) were tested at three dose levels and the value of ED-25% was determined.

[2] = guinea pig taenia coli, depolarized, CaCl2 10^-3 M, 10 min contact, from maximum inhibition

With `CCOC(=O)C1=C(C)NC(C)=C(C(=O)OCCN2CCN(c3ccc(Cl)cc3)CC2)C1c1cccc([N+](=O)[O-])c1` (stereo not drawn) [0294C, 2-[4-(4-Chlorophenyl)]piperazinoethyl-2,6-dimethyl-4-(3-nitrophenyl)-5-ethoxycarbonyl-1,4-dihydropyridine-3-carboxylate] the LD50 at 168 h (in vivo) was 19 mg/kg, the IC50 (taenia coli; [2]) was 5.1 nM and the ED (25%) [1] was 4.2 mg/kg.

Compound `COC(=O)C1=C(C)NC(C)=C(C(=O)OCCN2CCN(c3ccc([N+](=O)[O-])cc3)CC2)C1c1cccc([N+](=O)[O-])c1` (stereo not drawn) [0295C, 2-[4-(4-Nitrophenyl)]piperazinoethyl-2,6-dimethyl-4-(3-nitrophenyl)-5-methoxycarbonyl-1,4-dihydropyridine-3-carboxylate] has an LD50 at 168 h (in vivo) of 38 mg/kg, an IC50 (taenia coli) of 11 nM and an ED (25%) [1] of over 20 mg/kg.

Work on `COC(=O)C1=C(C)NC(C)=C(C(=O)OCCN2CCN(c3ccc([N+](=O)[O-])c(C(F)(F)F)c3)CC2)C1c1cccc([N+](=O)[O-])c1` (stereo not drawn) [0296C, 2-[4-(3-Trifluoromethyl-4-nitrophenyl)]piperazinoethyl-2,6-dimethyl-4-(3-nitrophenyl)-5-methoxycarbonyl-1,4-dihydropyridine-3-carboxylate] yielded an LD50 at 168 h (in vivo) of 55 mg/kg, an IC50 (taenia coli) of 19 nM and an ED (25%) [1] of 87 mg/kg.

`COC(=O)C1=C(C)NC(C)=C(C(=O)OCCN2CCN(c3ccc(C(F)(F)F)cc3)CC2)C1c1cccc([N+](=O)[O-])c1` (stereo not drawn) [0297C, 2-[4-(4-Trifluoromethylphenyl)]piperazinoethyl-2,6-dimethyl-4-(3-nitrophenyl)-5-methoxycarbonyl-1,4-dihydropyridine-3-carboxylate] gave an LD50 at 168 h (in vivo) of 73 mg/kg, an IC50 (taenia coli; [2]) of 15 nM and an ED (25%) [1] of 4.4 mg/kg.

For `COC(=O)C1=C(C)NC(C)=C(C(=O)OCCN2CCN(c3cccc(OC)c3)CC2)C1c1cccc([N+](=O)[O-])c1` (stereo not drawn) [0298C, 2-[4-(3-Methoxyphenyl)]piperazinoethyl-2,6-dimethyl-4-(3-nitrophenyl)-5-methoxycarbonyl-1,4-dihydropyridine-3-carboxylate], the LD50 at 168 h (in vivo) was 38 mg/kg, the IC50 (taenia coli; [2]) was 7.5 nM and the ED (25%) [1] was 32 mg/kg.
